Source: ChEMBL document CHEMBL4825745, “Novel Substituted Piperidine-2,6-dione Derivatives for Treating Sickle Cell Disease and β-Thalassemia” (ACS Med Chem Lett, 2021)

Molecular target: Protein Wiz (Homo sapiens, UniProt O95785)
Test: Induction of HiBit-tagged WIZ protein degradation expressed in HEK293T cells assessed as reduction in WIZ protein level incubated for 18 hrs by luminescence based assay
Assay type: cell-based

Chain of Protein Wiz (O95785 whole entry): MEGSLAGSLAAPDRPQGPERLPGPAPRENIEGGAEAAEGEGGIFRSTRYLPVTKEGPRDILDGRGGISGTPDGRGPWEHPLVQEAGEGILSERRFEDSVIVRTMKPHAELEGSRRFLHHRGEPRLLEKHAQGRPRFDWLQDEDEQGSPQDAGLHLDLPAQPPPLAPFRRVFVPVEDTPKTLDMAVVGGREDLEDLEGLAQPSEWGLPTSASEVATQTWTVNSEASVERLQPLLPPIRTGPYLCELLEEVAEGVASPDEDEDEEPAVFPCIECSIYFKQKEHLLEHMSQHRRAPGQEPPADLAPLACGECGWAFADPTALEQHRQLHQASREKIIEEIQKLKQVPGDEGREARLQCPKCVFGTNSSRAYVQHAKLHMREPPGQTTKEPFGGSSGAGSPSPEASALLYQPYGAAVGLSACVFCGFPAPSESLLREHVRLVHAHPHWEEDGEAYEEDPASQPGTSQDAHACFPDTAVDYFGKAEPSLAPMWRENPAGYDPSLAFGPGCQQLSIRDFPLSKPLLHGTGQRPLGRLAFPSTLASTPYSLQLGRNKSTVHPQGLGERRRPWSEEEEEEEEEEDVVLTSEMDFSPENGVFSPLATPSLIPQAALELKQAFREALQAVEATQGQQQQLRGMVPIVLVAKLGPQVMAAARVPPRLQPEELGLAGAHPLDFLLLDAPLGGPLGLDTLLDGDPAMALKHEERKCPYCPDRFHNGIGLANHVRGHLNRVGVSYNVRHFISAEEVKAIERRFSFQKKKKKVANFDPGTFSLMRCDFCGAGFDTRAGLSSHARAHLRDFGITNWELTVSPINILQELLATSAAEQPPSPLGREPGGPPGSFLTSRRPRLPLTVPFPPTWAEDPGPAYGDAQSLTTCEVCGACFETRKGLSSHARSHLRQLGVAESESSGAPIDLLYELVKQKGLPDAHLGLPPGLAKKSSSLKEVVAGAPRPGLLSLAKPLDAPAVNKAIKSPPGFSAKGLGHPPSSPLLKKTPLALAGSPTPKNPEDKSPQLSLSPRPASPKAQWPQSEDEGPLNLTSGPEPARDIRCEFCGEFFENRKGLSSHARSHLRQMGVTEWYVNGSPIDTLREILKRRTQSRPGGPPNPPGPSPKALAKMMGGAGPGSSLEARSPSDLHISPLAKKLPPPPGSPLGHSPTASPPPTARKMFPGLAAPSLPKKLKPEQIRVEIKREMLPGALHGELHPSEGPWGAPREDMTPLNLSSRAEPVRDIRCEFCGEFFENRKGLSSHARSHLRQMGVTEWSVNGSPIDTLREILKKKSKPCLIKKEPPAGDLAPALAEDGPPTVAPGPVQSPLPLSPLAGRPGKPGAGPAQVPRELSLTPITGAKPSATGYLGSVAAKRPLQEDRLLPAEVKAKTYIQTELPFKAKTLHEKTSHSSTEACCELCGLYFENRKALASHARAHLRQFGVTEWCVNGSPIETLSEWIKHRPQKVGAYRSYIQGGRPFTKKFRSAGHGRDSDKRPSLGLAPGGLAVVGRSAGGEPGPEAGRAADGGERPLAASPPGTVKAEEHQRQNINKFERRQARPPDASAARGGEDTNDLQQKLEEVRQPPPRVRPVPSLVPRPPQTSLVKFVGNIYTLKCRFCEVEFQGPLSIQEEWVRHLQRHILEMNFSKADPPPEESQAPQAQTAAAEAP

| AC50 [pM] | SMILES |
| --- | --- |
| 350 | O=C1CCC(N2Cc3cc(OC[C@H]4CCCCN4Cc4ccc(C5=CCOCC5)cc4)ccc3C2=O)C(=O)N1 (stereo partly specified) |
| 220 | O=C1CCC(N2Cc3cc(OC[C@H]4CCCCN4Cc4ccc(C5(C(F)(F)F)CC5)cc4)ccc3C2=O)C(=O)N1 (stereo partly specified) |
| 83 | CC(C)(C)c1ccc(CN2CCCC[C@@H]2COc2ccc3c(c2)CN(C2CCC(=O)NC2=O)C3=O)cc1 (stereo partly specified) |
| 520 | COc1ccc(CN2CCCC[C@@H]2COc2ccc3c(c2)CN(C2CCC(=O)NC2=O)C3=O)c(OC)c1 (stereo partly specified) |
| 470 | O=C1CCC(N2Cc3cc(OC[C@H]4CCCCN4Cc4ccc5c(c4)OC(F)(F)O5)ccc3C2=O)C(=O)N1 (stereo partly specified) |
| 370 | O=C1CCC(N2Cc3cc(OC[C@H]4CCCCN4Cc4ccc(N5CCCCC5)cc4)ccc3C2=O)C(=O)N1 (stereo partly specified) |
